Laboratory results as given in ChEMBL document CHEMBL4706661, “Synthesis and vasorelaxant evaluation of novel 7-methoxyl-2,3-disubstituted-quinoxaline derivatives” (2021).
Activity calls are given as the source filed them. No cut-off for these calls is given here.

Key:
Thoracic aorta [1] = experiment: Vasorelaxant activity in C57 mouse thoracic aortic rings containing endothelium assessed as reduction in phenylephrine-induced contractions at 3 to 300 uM measured for 16 mins by myograph assay; assay type: functional, tissue-based; settings: dose 3-300 µM
Thoracic aorta [2] = experiment: Vasorelaxant activity in C57 mouse thoracic aortic rings assessed as reduction in high extracellular K+-induced contractions at 3 to 300 uM measured for 16 mins in absence of endothelium by myograph assay; assay type: functional, tissue-based; settings: dose 3-300 µM
Thoracic aorta [3] = experiment: Vasorelaxant activity in C57 mouse thoracic aortic rings containing endothelium assessed as reduction in high extracellular K+-induced contractions measured for 16 mins by myograph assay; assay type: functional, tissue-based; settings: dose 3-300 µM
Thoracic aorta [4] = experiment: Vasorelaxant activity in C57 mouse thoracic aortic rings containing endothelium assessed as reduction in high extracellular K+-induced contractions at 3 to 300 uM pretreated with nitric oxide synthase inhibitor, L-NAME and measured for 16 mins by myograph method; assay type: functional, tissue-based; settings: dose 3-300 µM
Thoracic aorta [5] = experiment: Vasorelaxant activity in C57 mouse thoracic aortic rings containing endothelium assessed as reduction in phenylephrine-induced contractions at 300 uM after 40 mins by myograph method; assay type: functional
Thoracic aorta [6] = experiment: Vasorelaxant activity in C57 mouse thoracic aortic rings containing endothelium assessed as reduction in phenylephrine-induced contractions at 3 to 300 uM pretreated with nitric oxide synthase inhibitor, L-NAME and measured for 16 mins by myograph method; assay type: functional, tissue-based; settings: dose 3-300 µM
Thoracic aorta [7] = experiment: Vasorelaxant activity in C57 mouse thoracic aortic rings assessed as reduction in phenylephrine-induced contractions at 3 to 300 uM measured for 16 mins in absence of endothelium by myograph method; assay type: functional, tissue-based; settings: dose 3-300 µM

Structure (SMILES)	Activity (Thoracic aorta [1])	Activity (Thoracic aorta [2])	Activity (Thoracic aorta [3])	Activity (Thoracic aorta [4])	inhibition at 300 µM (Thoracic aorta [5]) [%]	Activity (Thoracic aorta [6])	Activity (Thoracic aorta [7])
COc1ccc2nc(Oc3ccc(-c4ccccc4)cc3)c(N3CCCC3)nc2c1	inactive						
COc1ccc2nc(Oc3ccc(-c4ccc(C#N)cc4)cc3)c(N3CCN(C)CC3)nc2c1	Active	Active	Dose-dependent effect				
CCN1CCN(c2nc3cc(OC)ccc3nc2N2CCCC2)CC1	Dose-dependent effect	Active	Dose-dependent effect	Active	50	Active	Active
COc1ccc2nc(N3CCCC3)c(N3CCN(c4ccccc4)CC3)nc2c1	inactive						
COc1ccc2nc(N3CCCC3)c(N3CCN(Cc4ccccc4)CC3)nc2c1	inactive						
COc1ccc2nc(Oc3ccc(-c4ccc(C#N)cc4)cc3)c(N3CCN(c4ccccc4)CC3)nc2c1	Active	Active	Dose-dependent effect				
COc1ccc2nc(NC#N)c(N3CCN(Cc4ccccc4)CC3)nc2c1	inactive						
COC(=O)C1CCN(c2nc3cc(OC)ccc3nc2N2CCCC2)CC1	Dose-dependent effect	Active	Dose-dependent effect	Active	72.7	Active	Active
COc1ccc2nc(N3CCCC3)c(N3CCN(C)CC3)nc2c1	Dose-dependent effect	Active	Dose-dependent effect	Active	50	Active	Active
COc1ccc2nc(N3CCCC3)c(N3CCOCC3)nc2c1	inactive						
